Results: US11306073B2, “N-acylurea derivative and composition comprising same for prevention or treatment of cardiovascular disease” (KOREA UNIVERSITY RESEARCH AND BUSINESS FOUNDATION, priority 2016, dated 2022)
pKd: −log10 of the molar value.

Key:
[1] = tested on: CHO/αIIbβ3 cell line; assay: Screening of talin antagonist candidates: binding of CHO/αIIbβ3 cells to fibrinogen-coated plate (CCK-8 readout); type: cell-based; details: 0.2 mM of candidate; compared to a negative control; FIG. 2; read-out: inhibition of the binding between the CHO/αIIbβ3 cell line and fibrinogen
Description: Cells expressing platelet integrin αIIbβ3 were incubated with 0.2 mM of candidates, and the binding between the cells and fibrinogen was verified according to the experimental method shown in FIG. 1. In FIG. 2, 0% is a negative control and represents the degree to which cells adhere to a surface coated with bovine serum albumin (BSA) instead of fibrinogen, and 100% is a positive control and represents the degree to which cells adhere to fibrinogen in the absence of any candidate. The ability of candidates to inhibit fibrinogen binding was normalized to 100%, and the mean and standard error of three experiments are graphically shown.
Platelets bind to fibrinogen present in blood and produce thrombi. This binding is mediated by integrin αIIbβ3 present in the platelet cell membrane, and this integrin binds to fibrinogen after being activated by talin. In order to enable high-throughput efficacy testing by simplifying this procedure into a cell line-based experiment, integrin αIIbβ3 was first stably expressed in the CHO cell line using lentivirus, thereby constructing a CHO/αIIbβ3 cell line. The constructed cell line was cultured in a fibrinogen-coated 96-well plate for 1 hour and washed, after which the amount of remaining cells was measured to evaluate the efficacy of a talin antagonist candidate. In this procedure, in order to measure the relative amount of the CHO/αIIbβ3 cell line remaining in the well due to binding to fibrinogen, a cell counting kit-8 (CCK-8) was used to measure the activity of dehydrogenase present in the remaining cells. When the activity of dehydrogenase appeared due to the presence of the cells, the color of CCK-8 changed from yellow to orange (FIG. 1). To measure the degree to which the color changed to orange, the absorbance at a wavelength of 450 nm was measured with a plate reader. This enabled easy, fast and reliable high-throughput screening.
To screen talin antagonist candidates, inhibition of the binding affinity between the CHO/αIIbβ3 cell line and fibrinogen was examined by the above-described efficacy testing method.
As a result, it was shown that compounds, including KCH-1420, KCH-1424, KCH-1510, KCH-1511, KCH-1512, KCH-1513, KCH-1516, KCH-1518, KCH-1521, KCH-1523, KCH-1526, KCH-1529, KCH-1530, and KCH-1542 inhibited the binding between the CHO/αIIbβ3 cell line and fibrinogen by at least 80% compared to a negative control (FIG. 2). […] In FIG. 3, like FIG. 2, cells expressing platelet integrin αIIbβ3 were incubated with varying concentrations of a candidate, and the binding between the cells and fibrinogen was examined. Cell adhesion on the Y-axis is the relative degree of cell-fibrinogen binding.

[2] = tested on: mouse blood platelets; assay: Platelet aggregation inhibitory effect using mouse platelets activated by thrombin; type: cell-based; details: 0.2 mM compound, FIG. 5
Description: It is well known that platelets bind to fibrinogen in blood and form thrombi, which leads to the contraction of intracellular skeletal muscle due to signaling after the binding between activated integrin a αIIbβ3 and fibrinogen. To achieve this thrombus formation in vitro, mouse blood platelets were isolated and thrombin known as a platelet activator was added thereto. As a result, as shown in the left photograph of FIG. 5, the platelets were aggregated. However, when platelets were treated with thrombin in combination with KCH-1513 or KCH-1521, it was observed that platelet aggregation that was increased by thrombin decreased when 0.2 mM of KCH-1513 (middle photograph) or the same concentration of KCH-1521 (right photograph) was added.

[3] = biological target: T1, talin protein (6×His-tagged F2F3 protein) (Homo sapiens, UniProt Q9Y490); assay: Binding affinity between talin protein and candidate by surface plasmon resonance; details: SPR, talin F2F3 immobilized on sensor chip; FIG. 4; read-out: affinity constant
T1 construct: 6×His-tagged F2F3 protein containing F3 was isolated and purified; 6×His; made in house
Description: To measure the binding affinity between the talin protein and a talin antagonist candidate, surface plasmon resonance spectroscopy was used. Specifically, a talin antagonist candidate was added to the talin protein immobilized on a sensor chip, and the affinity constant between the two substances was measured by surface plasmon resonance (hereinafter referred to as ‘SPR’) spectrometry.
Talin is divided into an N-terminal head domain and a C-terminal rod domain, and the head domain is further divided into four subdomains, F0, F1, F2 and F3. Among them, F3 is known as an integrin binding site. Thus, 6×His-tagged F2F3 protein containing F3 was isolated and purified. As a sensor chip for immobilizing the talin protein, HTEPBE10PO1 (Biorad) was used. SPR was measured using ProteON™ XPR36 (Biorad).

T1 sequence (Q9Y490 196-405 limits assumed): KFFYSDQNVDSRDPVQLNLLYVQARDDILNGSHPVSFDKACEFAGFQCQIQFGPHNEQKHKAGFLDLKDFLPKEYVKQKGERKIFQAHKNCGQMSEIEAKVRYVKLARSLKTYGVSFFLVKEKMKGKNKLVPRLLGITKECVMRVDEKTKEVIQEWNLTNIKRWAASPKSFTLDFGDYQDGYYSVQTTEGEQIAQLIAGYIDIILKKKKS

| pKd [3] | SMILES | inhibition at 200 µM [1] | inhibition of thrombin-induced platelet aggregation [2] |
| --- | --- | --- | --- |
| – | Cc1cccc(OCC(=O)NC(=O)Nc2ccccc2F)c1C [KCH-1420, 2-(2,3-dimethylphenoxy)-N-((2-fluorophenyl)carbamoyl)acetamide] | ≥ 80% | – |
| – | CC(C)(C)OC(=O)N1CCN(CC(=O)NC(=O)Nc2ccccc2F)CC1 [KCH-1424, tert-butyl 4-(2-(3-(2-fluorophenyl)ureido)-2-oxoethyl)piperazine-1-carboxylate] | ≥ 80% | – |
| – | COc1cc(NC(=O)NC(=O)Cn2nnc(-c3ccccc3)n2)ccc1Br [KCH-1510, N-((4-bromo-3-methoxyphenyl)carbamoyl)-2-(5-phenyl-2H-tetrazol-2-yl)acetamide] | ≥ 80% | – |
| – | O=C(Cn1nnc(-c2ccccc2)n1)NC(=O)Nc1ccc(Oc2ccccc2)cc1 [KCH-1511, N-((4-phenoxyphenyl)carbamoyl)-2-(5-phenyl-2H-tetrazol-2-yl)acetamide] | ≥ 80% | – |
| – | COc1ccc(CNC(=O)NC(=O)Cn2nnc(-c3ccccc3)n2)cc1 [KCH-1512, N-((4-methoxybenzyl)carbamoyl)-2-(5-phenyl-2H-tetrazol-2-yl)acetamide] | ≥ 80% | – |
| 2.03 | O=C(Cn1nnc(-c2ccccc2)n1)NC(=O)NCCC1=CNC2C=CC=CC12 (stereo not drawn) [KCH-1513, N-((2-(3a,7a-dihydro-1H-indol-3-yl)ethyl)carbamoyl)-2-(5-phenyl-2H-tetrazol-2-yl)acetamide] | ≥ 80% | significantly inhibit platelet aggregation |
| – | O=C(Cn1nnc(-c2ccccc2)n1)NC(=O)Nc1ccccc1F [KCH-1516, N-((2-fluorophenyl)carbamoyl)-2-(5-phenyl-2H-tetrazol-2-yl)acetamide] | ≥ 80% | – |
| – | COc1cc(NC(=O)NC(=O)COc2ccc3c(c2)OCO3)ccc1Br [KCH-1518, 2-(benzo[d][1,3]dioxo1-5-yloxy)-N-((4-bromo-3-methoxyphenyl)carbamoyl) acetamide] | ≥ 80% | – |
| 3.57 | O=C(COc1ccc2c(c1)OCO2)NC(=O)NCCc1c[nH]c2ccccc12 [KCH-1521] | ≥ 80% | significantly inhibit platelet aggregation |
| – | O=C(COc1ccc2c(c1)OCO2)NC(=O)Nc1ccc(OCc2ccccc2)cc1 [KCH-1523, 2-(benzo[d][1,3]dioxol-5-yloxy)-N-((4-(benzyloxy)phenyl)carbamoyl) acetamide] | ≥ 80% | – |
| – | COc1cc(NC(=O)NC(=O)COc2ccccc2OC)ccc1Br [KCH-1526, N-((4-bromo-3-methoxyphenyl)carbamoyl)-2-(2-methoxyphenoxy)acetamide] | ≥ 80% | – |
| – | COc1ccccc1OCC(=O)NC(=O)NCCc1c[nH]c2ccccc12 [KCH-1529, N-((2-(1H-indol-3-yl)ethyl)carbamoyl)-2-(2-methoxyphenoxy)acetamide] | ≥ 80% | – |
| – | COc1ccc(NC(=O)NC(=O)COc2ccccc2OC)c(OC)c1 [KCH-1530, N-((2,4-dimethoxyphenyl)carbamoyl)-2-(2-methoxyphenoxy)acetamide] | ≥ 80% | – |
| – | COc1ccc(NC(=O)NC(=O)COc2cccc(Br)c2)c(OC)c1 [KCH-1542, 2-(3-bromophenoxy)-N-((2,4-dimethoxyphenyl)carbamoyl)acetamide] | ≥ 80% | – |
